# Counter-ions that a name gives are not always drawn.
row,melting point,SMILES
1,174 °C,CNCC1=C(C#N)C(c2cccc3nonc23)c2c[nH]nc2N1.O=C(O)C(F)(F)F (stereo not shown)
2,225 °C,N#CC1=C(C2CCCNC2)Nc2n[nH]cc2C1c1cccc(C#N)c1Br.O=C(O)C(F)(F)F (stereo not shown)
3,232 °C,N#CC1=C(C2CCCCN2)Nc2n[nH]cc2C1c1cccc(C#N)c1Br.O=C(O)C(F)(F)F (stereo not shown)
4,236 °C,N#CC1=C(C2CNCCO2)Nc2n[nH]cc2C1c1cccc(C#N)c1Br.O=C(O)C(F)(F)F (stereo not shown)
5,> 270 °C,Cl.N#CC1=C(C2CCNCC2)Nc2n[nH]cc2C1c1cccc2nonc12 (stereo not shown)
6,> 270 °C,Cl.N#CC1=C(C2CCNCC2)Nc2n[nH]cc2C1c1cccc(C#N)c1Br (stereo not shown)
7,203 to 205 °C (dec.),Cl.Cl.Cl.N#CC1=C(CN2CCN(c3cccc4ccccc34)CC2)Nc2n[nH]cc2C1c1ccccc1Cl (stereo not shown)
8,204 to 206 °C (dec.),CN1CCCN(CC2=C(C#N)C(c3ccccc3Cl)c3c[nH]nc3N2)CC1.Cl.Cl (stereo not shown)
9,217 to 220 °C (dec.),Cl.Cl.Cl.N#CC1=C(CN2CCN(c3ccccc3)CC2)Nc2n[nH]cc2C1c1ccccc1Cl (stereo not shown)
10,204 °C,CCCC1=C([N+](=O)[O-])C(c2ccccc2[N+](=O)[O-])c2c[nH]nc2N1 (stereo not shown)
11,174 °C,"CN1CCCC(C2=C(C#N)C(c3cccc(C#N)c3Br)c3c[nH]nc3N2)C1 (stereo not shown) (as salt: trifluoroacetate) [Example 1041, 4-(2-Bromo-3-cyanophenyl)-5-cyano-4,7-dihydro-6-(1-methylpiperidin-3-yl)-2H-pyrazolo[3,4-b]pyridine]"
12,180 °C,"CN1CCOC(C2=C(C#N)C(c3cccc(C#N)c3Br)c3c[nH]nc3N2)C1 (stereo not shown) (as salt: trifluoroacetate) [Example 1046, 4-(2-Bromo-3-cyanophenyl)-5-cyano-4,7-dihydro-6-(4-methylmorpholin-2-yl)-2H-pyrazolo[3,4-b]pyridine]"
13,> 270 °C,"CN1CCC(C2=C(C#N)C(c3ccccc3Cl)c3c[nH]nc3N2)CC1 (stereo not shown) (as salt: trifluoroacetate) [Example 1056, 4-(2-Chlorophenyl)-5-cyano-4,7-dihydro-6-(1-methylpiperidin-4-yl)-2H-pyrazolo[3,4-b]pyridine]"
14,159 °C,"CCCC1=C(C(=O)OCC)C(c2cccc3nonc23)c2c[nH]nc2N1 (single isomer, unassigned; (+)) [Example 116, (+)Ethyl 4-(2,1,3-benzoxadiazol-4-yl)-4,7-dihydro-6-propyl-2H-pyrazolo[3,4-b]pyridine-5-carboxylate]"
15,159 to 161 °C,"CCCC1=C(C(=O)OCC)C(c2cccc3c2OCCC3)c2c[nH]nc2N1 (single isomer, unassigned; (+)) [Example 187, (+)Ethyl 4-(3,4-dihydro-2H-benzopyran-8-yl)-4,7-dihydro-6-propyl-2H-pyrazolo[3,4-b]pyridine-5-carboxylate]"
16,160 °C,"CCCC1=C(C(=O)OCC)C(c2cccc3nonc23)c2c[nH]nc2N1 (single isomer, unassigned; (-)) [Example 117, (−)Ethyl 4-(2,1,3-benzoxadiazol-4-yl)-4,7-dihydro-6-propyl-2H-pyrazolo[3,4-b]pyridine-5-carboxylate]"
17,160 to 161 °C,"CCCC1=C(C(=O)OCC)C(c2cccc3c2OCCC3)c2c[nH]nc2N1 (single isomer, unassigned; (-)) [Example 188, (−)Ethyl 4-(3,4-dihydro-2H-benzopyran-8-yl)-4,7-dihydro-6-propyl-2H-pyrazolo[3,4-b]pyridine-5-carboxylate]"
18,217 to 221 °C,"CCOC(=O)C1=C(C)Nc2n[nH]cc2C1c1ccccc1Cl (stereo not shown) [Example 1, Ethyl 4-(2-chlorophenyl)-4,7-dihydro-6-methyl-2H-pyrazolo[3,4-b]pyridine-5-carboxylate]"
19,196 to 200 °C,"CCOC(=O)C1=C(C)Nc2n[nH]cc2C1c1ccccc1OC (stereo not shown) [Example 2, Ethyl 4,7-dihydro-4-(2-methoxyphenyl)-6-methyl-2H-pyrazolo[3,4-b]pyridine-5-carboxylate]"

# — patent US6977262B2, “Dihydropyrazolopyridine compounds and pharmaceutical use thereof” (Mitsubishi Pharma Corporation, priority 2001, dated 2005)
